The values that follow come from PMC5908784, “Extracellular loops 2 and 3 of the calcitonin receptor selectively modify agonist binding and efficacy” (Biochemical Pharmacology, 2018).

Positions count from the first letter of the chain named. Where no end group is shown, it is not given here.

As a reminder, the Ki is a dissociation constant, usually derived from enzyme kinetics or from competition with a known ligand. A low value points to tighter binding.

What all share (experiment): Homologous whole cell competition binding
Holding throughout (details): homologous competition of 125I-sCT(8-32), whole cells, mean ± S.E.M., SEM

In one assay the target is T1, hCTR W361A (Homo sapiens, UniProt P30988, W361A).
T1 construct: expressed in transfected cells
T1 sequence (P30988 25-474 W361A): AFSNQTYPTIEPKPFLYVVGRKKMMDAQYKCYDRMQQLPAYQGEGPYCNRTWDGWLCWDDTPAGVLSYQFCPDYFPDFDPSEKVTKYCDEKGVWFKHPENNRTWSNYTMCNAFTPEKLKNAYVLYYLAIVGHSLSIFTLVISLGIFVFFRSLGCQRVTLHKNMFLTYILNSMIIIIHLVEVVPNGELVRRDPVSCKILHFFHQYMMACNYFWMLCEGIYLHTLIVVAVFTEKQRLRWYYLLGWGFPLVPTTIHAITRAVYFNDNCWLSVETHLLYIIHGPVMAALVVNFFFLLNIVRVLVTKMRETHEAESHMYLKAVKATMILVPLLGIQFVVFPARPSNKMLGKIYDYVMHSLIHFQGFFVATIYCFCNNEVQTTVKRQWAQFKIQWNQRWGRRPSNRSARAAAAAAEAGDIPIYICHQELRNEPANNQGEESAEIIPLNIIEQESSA
In a few lines: (§1)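 Homologous competition, intact cells, 4 °C overnight; tracer ^125I-sCT(8-32) 25–100 pM (two concs) vs cold sCT(8-32); NSB 1 μM cold peptide; γ counter; 3-param logistic IC50 → Cheng-Prusoff pKi; Bmax also estimated.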

A further assay deals with T2, hCTR R281A (Homo sapiens, UniProt P30988, R281A).
T2 construct: expressed in transfected cells
T2 sequence (P30988 25-474 R281A): T1 sequence (P30988 25-474 W361A) with R257A, A337W
The method in brief:
as §1

Another assay concerns the target T3, hCTR V293A (Homo sapiens, UniProt P30988, V293A).
T3 construct: c-Myc (N); expressed in transfected cells
T3 sequence (P30988 25-474 V293A): T1 sequence (P30988 25-474 W361A) with V269A, A337W
The method in brief:
as §1

The next assay concerns the target T4, hCTR F356A (Homo sapiens, UniProt P30988, F356A).
T4 construct: c-Myc (N); expressed in transfected cells
T4 sequence (P30988 25-474 F356A): T1 sequence (P30988 25-474 W361A) with F332A, A337W
In a few lines: as §1

Turning to “VLGKLSQELHKLQTYPRTNTGSGTP-NH2 [sCT(8-32)]”, the inhibition constant Ki on hCTR W361A is 0.282 nM; at hCTR R281A, 0.851 nM; on hCTR V293A it was 0.178 nM; on hCTR F356A, 0.141 nM.
